In one test the target is T1, CDK1 (Homo sapiens, UniProt P06493).
T1 construct: purchased New England Biolabs, Beverly, Mass; 6020; host or cells: insect cells
The test can be described thus: CDK-1 kinase screening assay (33P-ATP FlashPlate). In kind it is biochemical. The settings on record: 10 μM ATP, biotinylated histone-H1 peptide substrate, 1 hr at 30° C. The method, then:
(§1) A kinase reaction mixture was prepared containing 50 mM Tris-HCl pH=8, 10 mM MgCl2, 0.1 mM […], 1 mM DTT, 10 μM ATP, 0.025 μM biotinylated histone-H1 peptide substrate and 0.2 μCuries per well ^33P-γ-ATP (2000-3000 Ci/mmol). 70 μL of the kinase reaction mixture was dispensed into the well of a streptavidin coated FlashPlate™ (Cat. # SMP103, NEN, Boston, Mass.).
(§2) Test compound stock in 100% DMSO (1 μL) was added to the wells resulting in a final concentration of 1% DMSO in the reaction with a 100 μL final reaction volume. Each enzyme was diluted in 50 mM Tris-HCl pH=8.0, 0.1% BSA and 30 μL was added to each well to initiate the reaction. The reaction was incubated for one hour at 30° C. At the end of the 1 hr incubation, the reaction was terminated by aspirating the mixture from the plate and washing the wells twice with PBS containing 100 mM EDTA. The biotinylated peptide substrate became immobilized on the Flashplate™ and the incorporation of ^33P-γ-ATP was measured by reading the plate on a scintillation counter. Inhibition of the enzymatic activity was measured by observing a reduced amount of ^33P-γ-ATP incorporated into the immobilized peptide.
The CDK1 enzyme was isolated from insect cells expressing both the human CDK1 catalytic subunit (Accession number NM_001786) and its positive regulatory subunit cyclin B (New England Biolabs, Beverly, Mass.; Cat. # 6020). The assay used 30 ng of the N-terminal biotinylated peptide biotin-[…]-amide (Cyclin dependent kinase 1) per well.
(§3) Aurora-A is a fusion protein containing a polyhistidine tag at the N terminus followed by the full length protein encoding the murine Aurora-A (Accession number GB BC014711) expressed and purified from sf9 insect cells. The assay used 400 ng of the N-terminal biotinylated peptide biotin-[…]-amide (Aurora-A) per well. A maximum and minimum signal for the assay was determined on each plate. The percent inhibition of a test compound was calculated according to the formula: […]
(§4) For a series of test concentrations, the IC50 was derived by graphing percent inhibition against the log of the concentrations tested for a given compound with results shown in Table 1.

For the next test, the system named is HCT-116 colon carcinoma. Description: Cell proliferation inhibition assay (14C-thymidine incorporation), HCT-116. In kind it is cell-based. As to conditions: Homo sapiens, HCT-116 cells. An excerpt: (§5) The ability of a test compound to inhibit unregulated cell proliferation may be determined by measuring incorporation of ^14C-labelled thymidine into newly synthesized DNA within cell lines derived from carcinomas originating from several tissues. Accordingly, the anti-proliferative effect of a compound on cells with a variety of phenotypes may be determined.
(§6) Carcinoma cell lines include those such as HeLa cervical adenocarcinoma (American Type Culture Collection (ATCC), Virginia, Cat. #CCL-2), A375 malignant melanoma (ATCC CRL-1619), and HCT-116 colon carcinoma (CCL-247).
(§7) The carcinoma cells are trypsinized and counted. The cells (3000-8000 count) are added to each well of a 96-well CytoStar tissue culture treated scintillating microplate (Amersham #RPNQ0160) in complete medium (100 μL) and the plate is then incubated in complete medium for 24 hrs at 37° C. in an inert atmosphere containing 5% CO2. Test compound (1 μL) in 100% DMSO is added to the plate test-wells with DMSO only added to control-wells. The plate is incubated in complete medium for a second 24 hr period at 37° C. in an atmosphere containing 5% CO2.
(§8) An aliquot of a solution of Methyl ^14C-thymidine (56 mC/mmol) (NEN #NEC568 or Amersham #CFA532) and complete medium (20 uL to provide 0.2 μCi/well) is then added to each well and the plate is incubated for a third 24 hr period at 37° C. in an atmosphere containing 5% CO2. The plate contents are then discarded, the plate is washed twice with PBS (200 μL) and then PBS (200 μL) is added to each well. The plate is sealed and the degree of methyl ^14C-thymidine incorporation is quantified on a Packard Top Count.
(§9) A maximum and minimum signal for the assay was determined on each plate. The percent inhibition of a test compound was calculated according to the formula: […]
(§10) For a series of test concentrations, the IC50 was derived by graphing percent inhibition against the log of the concentrations tested for a given compound with results shown in Table 3.
A general note: Dividing cells build labelled thymidine or BrdU into new DNA.

A further test concerns the target T2, Aurora-A (Mus musculus, UniProt P97477).
T2 construct: followed by the full length protein encoding the murine Aurora-A; polyhistidine (N); made in house; host or cells: sf9 insect cells
T2 sequence (P97477 1-395): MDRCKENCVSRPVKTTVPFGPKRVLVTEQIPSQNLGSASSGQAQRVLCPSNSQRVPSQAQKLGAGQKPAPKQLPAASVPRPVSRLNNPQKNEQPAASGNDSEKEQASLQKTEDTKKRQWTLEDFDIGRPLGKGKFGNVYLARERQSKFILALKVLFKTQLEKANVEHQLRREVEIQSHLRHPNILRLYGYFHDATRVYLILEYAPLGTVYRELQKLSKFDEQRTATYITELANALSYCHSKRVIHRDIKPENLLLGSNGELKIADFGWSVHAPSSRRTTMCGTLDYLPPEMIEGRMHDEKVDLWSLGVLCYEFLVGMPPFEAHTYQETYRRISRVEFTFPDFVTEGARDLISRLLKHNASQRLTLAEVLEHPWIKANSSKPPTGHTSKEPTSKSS
The test can be described thus: Aurora-A kinase screening assay (33P-ATP FlashPlate). In kind it is biochemical. The settings on record: 10 μM ATP, murine full length Aurora-A, 1 hr at 30° C.

In the next test the test system is A375 malignant melanoma. Description: Cell proliferation inhibition assay (14C-thymidine incorporation), A375. The settings on record: Homo sapiens, A-375, A375 cells. The class given is cell-based.
Text: as §5, §6, §7, §8, §9, §10

Test [1] relates to HeLa cervical adenocarcinoma. The test can be described thus: Cell proliferation inhibition assay (14C-thymidine incorporation), HeLa. The settings on record: Homo sapiens, HeLa cells. In kind it is cell-based.
Text: as §5, §6, §7, §8, §9, §10

The next test deals with T3, VEGFR2 (Rattus norvegicus, UniProt O08775).
T3 construct: polyhistidine (N)
T3 sequence (O08775 786-1343): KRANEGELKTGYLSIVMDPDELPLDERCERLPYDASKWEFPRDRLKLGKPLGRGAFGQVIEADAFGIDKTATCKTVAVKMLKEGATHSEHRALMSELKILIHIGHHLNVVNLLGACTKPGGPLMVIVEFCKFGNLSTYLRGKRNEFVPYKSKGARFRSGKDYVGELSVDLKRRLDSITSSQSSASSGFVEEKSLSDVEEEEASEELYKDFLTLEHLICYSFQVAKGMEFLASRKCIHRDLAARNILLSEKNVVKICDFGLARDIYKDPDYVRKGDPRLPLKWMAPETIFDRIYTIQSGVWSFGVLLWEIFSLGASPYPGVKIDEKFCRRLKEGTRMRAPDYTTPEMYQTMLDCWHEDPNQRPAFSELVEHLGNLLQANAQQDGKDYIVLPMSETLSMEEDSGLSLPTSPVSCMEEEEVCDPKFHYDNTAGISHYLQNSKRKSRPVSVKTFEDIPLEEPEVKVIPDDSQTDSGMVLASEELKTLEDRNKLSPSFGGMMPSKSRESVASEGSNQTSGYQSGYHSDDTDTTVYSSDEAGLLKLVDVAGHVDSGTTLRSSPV
The test can be described thus: VEGFR2 kinase screening assay (33P-ATP FlashPlate). As to conditions: 10 μM ATP, rat VEGF-R2 kinase domain, 1 hr at 30° C. The class given is biochemical.

A further test concerns the target T4, HER2 (Homo sapiens, UniProt P04626).
T4 construct: GST (Glutathione-S-Transferase) (N); HIS6 (N); Thrombin cleavage site (N); purchased Proqinase, Freiburg, Germany
The test can be described thus: HER2 kinase screening assay (33P-ATP FlashPlate). In kind it is biochemical. The settings on record: 10 μM ATP, biotin-poly(GT) 4:1 substrate, 1 hr at 30° C. How it is done: as §1, §2
The HER2 construct consisted of a fusion of GST (Glutathione-S-Transferase), HIS6 Thrombin and the nucleotides encoding amino acids 679 to 1255 of HER-2 (Accession number M11730) (Proqinase, Freiburg, Germany). The assay used 200 ng of the N-terminal biotinylated peptide biotin-poly(GT) 4:1 (HER2) per well.
as §3, §4

Where only a bound is given, the exact number is not on record here.

T1 sequence (P06493 whole entry): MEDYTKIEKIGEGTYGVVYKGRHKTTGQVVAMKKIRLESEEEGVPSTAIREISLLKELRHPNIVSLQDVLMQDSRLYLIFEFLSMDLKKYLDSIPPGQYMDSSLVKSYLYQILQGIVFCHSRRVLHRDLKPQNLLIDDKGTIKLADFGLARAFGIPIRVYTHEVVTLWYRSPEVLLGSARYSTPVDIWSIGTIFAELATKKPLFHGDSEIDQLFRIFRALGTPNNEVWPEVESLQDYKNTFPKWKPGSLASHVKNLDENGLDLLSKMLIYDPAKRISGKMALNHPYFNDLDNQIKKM
T1 sequence (P14635 whole entry partner): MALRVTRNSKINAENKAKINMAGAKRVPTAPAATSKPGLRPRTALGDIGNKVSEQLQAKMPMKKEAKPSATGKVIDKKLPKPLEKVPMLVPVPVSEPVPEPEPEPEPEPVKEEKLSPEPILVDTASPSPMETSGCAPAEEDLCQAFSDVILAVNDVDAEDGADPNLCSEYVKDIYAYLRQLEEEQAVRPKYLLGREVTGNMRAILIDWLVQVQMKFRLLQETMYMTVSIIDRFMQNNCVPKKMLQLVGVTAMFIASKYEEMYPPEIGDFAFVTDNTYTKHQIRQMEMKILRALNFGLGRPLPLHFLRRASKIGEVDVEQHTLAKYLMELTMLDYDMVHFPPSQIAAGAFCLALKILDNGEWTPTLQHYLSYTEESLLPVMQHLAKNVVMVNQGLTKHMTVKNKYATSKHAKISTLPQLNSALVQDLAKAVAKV
T4 sequence (P04626 679-1255): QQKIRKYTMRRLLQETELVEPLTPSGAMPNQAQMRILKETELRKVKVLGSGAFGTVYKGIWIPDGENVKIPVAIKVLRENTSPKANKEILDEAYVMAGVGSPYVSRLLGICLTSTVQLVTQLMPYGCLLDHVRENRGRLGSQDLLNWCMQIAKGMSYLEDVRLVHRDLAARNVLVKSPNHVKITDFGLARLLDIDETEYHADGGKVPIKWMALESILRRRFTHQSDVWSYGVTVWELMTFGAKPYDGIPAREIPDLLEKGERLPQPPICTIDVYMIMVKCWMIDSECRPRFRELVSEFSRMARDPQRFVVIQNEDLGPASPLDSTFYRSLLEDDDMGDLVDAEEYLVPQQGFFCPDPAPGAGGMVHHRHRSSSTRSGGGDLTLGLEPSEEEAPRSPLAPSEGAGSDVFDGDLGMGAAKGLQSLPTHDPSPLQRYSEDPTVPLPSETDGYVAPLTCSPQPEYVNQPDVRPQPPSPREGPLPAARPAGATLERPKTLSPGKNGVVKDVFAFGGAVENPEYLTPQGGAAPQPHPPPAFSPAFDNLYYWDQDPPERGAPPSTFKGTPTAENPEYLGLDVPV

`COc1ccc2nc(-c3n[nH]cc3C=Cc3ccc(N)nc3)[nH]c2c1` [Cpd 3, 5-{2-[3-(6-Methoxy-1H-benzoimidazol-2-yl)-1H-pyrazol-4-yl]-vinyl}-pyridin-2-ylamine]: the concentration for half-maximal inhibition (IC50) (as a rule, the concentration at which inhibition is half-maximal) against CDK1 amounted to 23 nM; in the test on HCT-116 colon carcinoma, 1040 nM; against Aurora-A, 625 nM; in the test with A375 malignant melanoma, 1030 nM; in test [1], 992 nM; on VEGFR2 it was 636 nM. In addition, the IC50 on HER2 was 6840 nM.
Take `CN1CCN(c2ccc3nc(-c4n[nH]cc4C=Cc4cccnc4)[nH]c3c2)CC1` [Cpd 8, 6-(4-methyl-piperazin-1-yl)-2-[4-(2-pyridin-3-yl-vinyl)-1H-pyrazol-3-yl]-1H-benzoimidazole]: the IC50 on CDK1 is 29.1 nM; in the test on HCT-116 colon carcinoma, 194 nM; against Aurora-A, > 10000 nM; in the test with A375 malignant melanoma, 864 nM; in test [1], 464 nM; at VEGFR2 it was 286 nM. On HER2, the half-maximal inhibitory concentration (IC50) came to 9320 nM.
Consider `COc1ccc2nc(-c3n[nH]cc3C=Cc3cnccc3C)[nH]c2c1` [Cpd 5, 6-methoxy-2-{4-[2-(4-methyl-pyridin-3-yl)-vinyl]-1H-pyrazol-3-yl}-1H-benzoimidazole], for which the IC50 on CDK1 was found to be 157 nM; in the test on HCT-116 colon carcinoma, 3190 nM; at Aurora-A, 549 nM; in the test with A375 malignant melanoma it was 4300 nM; in test [1] it was 2760 nM.
Turning to `COC(=O)c1cncc(C=Cc2c[nH]nc2-c2nc3ccc(OC)cc3[nH]2)c1` [Cpd 9, 5-{2-[3-(6-methoxy-1H-benzoimidazol-2-yl)-1H-pyrazol-4-yl]-vinyl}-nicotinic acid methyl ester], the IC50 is 886 nM against CDK1; 3130 nM in the test on HCT-116 colon carcinoma; > 100000 nM at Aurora-A; 3100 nM in the test with A375 malignant melanoma; 4370 nM in test [1]; 1280 nM on VEGFR2.
In the case of `CCNC(=O)c1cncc(C=Cc2c[nH]nc2-c2nc3ccc(OC)cc3[nH]2)c1` [Cpd 11, N-ethyl-5-{2-[3-(6-methoxy-1H-benzoimidazol-2-yl)-1H-pyrazol-4-yl]-vinyl}-nicotinamide], the 50% inhibitory concentration (IC50) is 111 nM against CDK1; 2460 nM with HCT-116 colon carcinoma; > 100000 nM on Aurora-A; 3620 nM in the test with A375 malignant melanoma; 3700 nM in test [1]; 1350 nM against VEGFR2. In addition, at HER2, inhibition was half-maximal at 36600 nM (IC50).
`CCNCc1cncc(C=Cc2c[nH]nc2-c2nc3ccc(OC)cc3[nH]2)c1` [Cpd 1, ethyl-(5-{2-[3-(6-methoxy-1H-benzoimidazol-2-yl)-1H-pyrazol-4-yl]-vinyl}-pyridin-3-ylmethyl)-amine]: the IC50 against CDK1 came to 4.59 nM; with HCT-116 colon carcinoma it was 187 nM; at Aurora-A, 588 nM; in the test with A375 malignant melanoma it was 553 nM; in test [1], 615 nM; at VEGFR2, 821 nM. The same compound had a concentration for half-maximal inhibition (IC50) against HER2 of 3030 nM.
`COc1cncc(C=Cc2c[nH]nc2-c2nc3ccc(OC)cc3[nH]2)c1` [Cpd 10, 6-methoxy-2-{4-[2-(5-methoxy-pyridin-3-yl)-vinyl]-1H-pyrazol-3-yl}-1H-benzoimidazole]: the IC50 turned out to be 46.6 nM against CDK1; 748 nM in the test on HCT-116 colon carcinoma; 399 nM against Aurora-A; 913 nM in the test on A375 malignant melanoma; 886 nM in test [1]; 653 nM against VEGFR2. For the same compound, the half-maximal inhibitory concentration (IC50) at HER2 turned out to be 12000 nM.
`COc1ccc2nc(-c3n[nH]cc3C=Cc3cncc(C#N)c3)[nH]c2c1` [Cpd 7, 5-{2-[3-(6-methoxy-1H-benzoimidazol-2-yl)-1H-pyrazol-4-yl]-vinyl}-nicotinonitrile]: the results for the half-maximal inhibitory concentration (IC50) against CDK1, on Aurora-A and at VEGFR2 were > 1000 nM, 4190 nM and 1730 nM, respectively.
Consider `COc1ccc2nc(-c3n[nH]cc3C=Cc3cccnc3)[nH]c2c1` [Cpd 2, 6-methoxy-2-[4-(2-pyridin-3-yl-vinyl)-1H-pyrazol-3-yl]-1H-benzoimidazole], for which the half-maximal inhibitory concentration (IC50) against CDK1 amounted to 32.8 nM; with HCT-116 colon carcinoma it was 2160 nM; on Aurora-A, 513 nM; in the test on A375 malignant melanoma, 2500 nM; in test [1], 1800 nM; at VEGFR2 it was 967 nM.
For `COc1ccc2nc(-c3n[nH]cc3C=Cc3cncc4ccccc34)[nH]c2c1` [Cpd 6, 4-{2-[3-(6-methoxy-1H-benzoimidazol-2-yl)-1H-pyrazol-4-yl]-vinyl}-isoquinoline], the 50% inhibitory concentration (IC50) was determined as 148 nM on CDK1; 2680 nM in the test with HCT-116 colon carcinoma; 2960 nM with A375 malignant melanoma; 2820 nM in test [1]; 613 nM on VEGFR2.

Values taken from US7638518B2, “Substituted pyrazole kinase inhibitors” (Janssen Pharmaceutica, priority 2006, dated 2009).
